Results as given in patent US20050226135A1, “Write-once information recording medium” (KABUSHIKI KAISHA TOSHIBA, priority 2004, published 2005).

Test: solubility in an organic solvent at 20° C. by an ordinary method
Assay type: physicochemical
Settings: organic solvents of amide, alcohol, ketone, nitrile and halogen systems (chloroform, N,N-dimethyl formamide, methanol, 2,2,3,3-tetrafluoro-1-propanol, ethyl methyl ketone, acetonitrile)

In the case of `COc1ccc(OC)c(/N=N/C(=N\[N]([Ni][N](/N=C(\N=N\c2cc(OC)ccc2OC)c2ccccn2)c2ccc([N+](=O)[O-])cn2)c2ccc([N+](=O)[O-])cn2)c2ccccn2)c1` [chemical formula 3], the “solubility in an organic solvent” value was “practically applicable solubility”.
